Assay: xn = mol fraction of the nth substance listed
Conditions: 101.3 kPa, Liquid; for viscosity: Capillary tube (Ostwald / Ubbelohde) method

CC(O)CCO (stereo not given) [1,3-butanediol] + O
Conditions	mass density, 318.15 K [kg/m3]	mass density, 328.15 K [kg/m3]	mass density, 338.15 K [kg/m3]	speed of sound, 318.15 K [m/s]	speed of sound, 328.15 K [m/s]	speed of sound, 338.15 K [m/s]	viscosity, 328.15 K [mPa·s]	viscosity, 338.15 K [mPa·s]
x2 = 0.045	–	980.01	972.67	–	1456.8	1438.1	17.94	11.63
x2 = 0.1445	–	982.02	974.54	–	1473	1452.7	15.5	9.961
x2 = 0.2499	–	984.33	976.7	–	1489.7	1468.1	12.68	8.015
x2 = 0.3526	–	986.62	978.84	–	1509.9	1486.2	9.939	6.116
x2 = 0.4519	–	988.88	980.99	–	1530.8	1506.1	7.454	4.415
x2 = 0.5035	–	990.12	982.18	1566.6	1542.3	1516.1	6.269	3.616
x2 = 0.5563	1001.18	991.47	983.48	1579.1	1554.1	1527.9	5.15	2.874
x2 = 0.6507	1003.55	993.99	985.94	1604.8	1579.6	1552	3.415	1.759
x2 = 0.7518	1005.28	996.11	988.14	1638.6	1612.2	1584.1	1.97	0.895
x2 = 0.8477	1004.06	995.8	988.28	1662.4	1638.8	1611.3	1.028	0.418
x2 = 0.9081	1000.51	993.31	986.44	1652.9	1635.3	1614.1	0.666	0.302
x2 = 0.9152	999.92	992.87	986.1	1649.3	1633	1612.4	0.636	0.299
x2 = 0.9253	999	992.19	985.58	1643	1628.7	1609.7	0.598	0.298
x2 = 0.9355	998	991.44	985	1635.1	1622.5	1606.3	0.565	0.301
x2 = 0.9521	996.21	990.11	983.95	1618.5	1610.6	1597.7	0.525	0.317
x2 = 0.9543	995.96	989.92	983.8	1616	1608.3	1596.6	0.521	0.32
x2 = 0.9597	995.33	989.45	983.44	1609.2	1603.1	1592.9	0.512	0.329
x2 = 0.9699	994.09	988.53	982.72	1594.8	1591.7	1585.4	0.5	0.348
x2 = 0.9804	992.76	987.55	981.96	1577.4	1578.7	1575.5	0.495	0.374
x2 = 0.9901	991.5	986.62	981.25	1558.9	1563.6	1565.5	0.496	0.403
x2 = 0.9924	991.2	986.41	981.09	1554.1	1559.6	1561.7	0.497	0.411
x2 = 0.9955	990.8	986.11	980.87	1547.5	1555	1558.4	0.499	0.422

From the NIST ThermoML archive (doi:10.1021/je0340755)
